The test system of one data set is human brain organoids. Put plainly: Viability and structure of ZIKV-infected human cerebral organoids. The note with it: ZIKV 2 × 10^4 particles/organoid, 5 μM, 7 dpi and 10 dpi.
Data set [1] concerns ZIKV. Put plainly: Antiviral dose-response in ZIKV-infected U87 cells (infected cells, viral titer). The note with it: for EC50: U87, ZIKV MOI 1, 48 h. In kind it is cell-based, Zika virus (strain H/PF/2013).
For data set [2], the system named is U87 cells. The experiment in a line: Cell viability by nuclei count in ZIKV-infected U87 cells. In kind it is cell-based, Human.
For the next data set, the target named is hOGG1 (Homo sapiens, UniProt O15527). The experiment in a line: hOGG1 IC50 (listed in supplementary data, method not described). In kind it is biochemical.
Data set [3] has as its system ZIKV. The experiment in a line: ZIKV infection (NS1 intensity) and viral titer in human cerebral organoids. As to conditions: ZIKV 2 × 10^4 particles/organoid, 5 μM, all timepoints, relative to DMSO. In kind it is cell-based, Zika virus (strain H/PF/2013).
For data set [4], the system named is U87 cells. Put plainly: Cell viability assay (Resazurin), uninfected U87 cells. In kind it is cell-based, Human. As to conditions: for CC50: read-out: Viability CC50 [µM] (95%-CI).
Data set [5] relates to ZIKV. The experiment in a line: Antiviral dose-response in ZIKV-infected Vero cells. Format: cell-based, Zika virus (strain H/PF/2013). As to conditions: Zika virus, 48 h.
Data set [6] in a line: Screen cytotoxicity by nuclei count in ZIKV-infected U87 cells. Format: cell-based. As to conditions: human; for viability at 48 h, 10 µM / viability at 10 µM: ZIKV-infected U87 cells; for viability at 48 h, 10 µM: ZIKV MOI 10, compound 10 µM, nuclei count relative to DMSO; for viability at 10 µM: screen.
The test system of data set [7] is ZIKV. Put plainly: Image-based phenotypic antiviral screen in ZIKV-infected U87 cells. Format: cell-based, Zika virus (strain H/PF/2013). As to conditions: for Infected Cells (U87, ZIKV) / Viral Titer (ZIKV): screen, U87 cells; for inhibition at 10 µM: Zika virus, U-87 MG.
A further data set has as its system HAZV. Put plainly: microbe, parasite or virus in culture. In kind it is cell-based, Hazara virus (isolate JC280). As to conditions: for inhibition at 10 µM: Hazara virus, SW13, 24 h; for Infected Cells (SW13, HAZV) / Viral Titer (HAZV): screen, SW13 cells.
For data set [8], the system named is ZIKV. The experiment in a line: Time-of-addition assay in ZIKV-infected U87 cells. In kind it is cell-based, Zika virus (strain H/PF/2013).
Data set [9] deals with ZIKV. The experiment in a line: Time course of ZIKV replication in U87 cells (vRNA, infected cells, titer).
A short description of the next data set: in vitro. As to conditions: human.
Data set [10] is described as follows: Cell viability assay (Resazurin), uninfected U87 cells. As to conditions: human, read-out: Viability CC50 [µM] (95%-CI); for CC50 at 24 h: uninfected U87, 24 h; for CC50 at 48 h: uninfected U87, 48 h; for CC50 at 72 h: uninfected U87, 72 h. Format: cell-based, Human.
The subject of the next data set is Vero cells. Put plainly: Cell viability by nuclei count in ZIKV-infected Vero cells. In kind it is cell-based, African Green Monkey.
[11] abbreviates: ZIKV MOI 10, 100 µM Ribavirin (positive control), 48 h.
Where [12] appears, read: U87, ZIKV MOI 10, 100 µM Ribavirin (positive control), 48 h.
The mark [13] stands for this setting: read-out: Inhibition of HAZV titer (%).
The mark [14] stands for this setting: read-out: Inhibition of primary HAZV infection (%).
The mark [15] stands for this setting: U87, ZIKV MOI 1, from 24 hpi and onwards.
[16] abbreviates: U87, ZIKV MOI 10, compound 10 µM, 48 h, relative to DMSO.
Setting [17] is: ZIKV MOI 10, compound 10 µM, 48 h, relative to DMSO.
Setting [18] is: U87, ZIKV MOI 10, compound 10 µM, 48 h, relative to DMSO, read-out: Inhibition of ZIKV titer (%).
[19] abbreviates: U87, ZIKV MOI 10, compound 10 µM, 48 h, relative to DMSO, read-out: Inhibition of primary ZIKV infection (%).
[20] abbreviates: Zika virus, U-87 MG, 48 h, read-out: Antiviral on primary infection IC50 [µM], ZIKV, U87, MOI 10, 48 h.
[21] abbreviates: Zika virus, U-87 MG, 48 h, read-out: Antiviral on titer (µM) IC50 [µM], ZIKV, U87, MOI 10, 48 h.
[22] abbreviates: Zika virus, U-87 MG, ZIKV NS1 staining, read-out: EC50 [μM] Infected cells.
The mark [23] stands for this setting: Zika virus, U-87 MG, end-point dilution assay, read-out: EC50 [μM] Viral titer.
Setting [24] is: Homo sapiens, U-87 MG, 48 h, read-out: Viability (nuclei count) EC50 [µM].

Structures are written as SMILES. Like-named read-outs stand apart in the source and are kept apart here.

Sequence of hOGG1 (O15527 whole entry): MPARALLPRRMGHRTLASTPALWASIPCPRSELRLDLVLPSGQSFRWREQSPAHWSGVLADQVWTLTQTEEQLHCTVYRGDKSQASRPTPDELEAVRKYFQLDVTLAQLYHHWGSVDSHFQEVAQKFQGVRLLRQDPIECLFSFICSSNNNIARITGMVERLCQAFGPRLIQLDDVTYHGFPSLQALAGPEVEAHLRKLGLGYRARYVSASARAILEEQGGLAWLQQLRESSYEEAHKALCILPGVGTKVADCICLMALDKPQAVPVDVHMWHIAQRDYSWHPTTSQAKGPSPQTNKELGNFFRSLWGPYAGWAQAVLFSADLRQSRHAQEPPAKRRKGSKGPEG

On to `O=C(Nc1ccc(I)cc1)N1CCC(n2c(=O)[nH]c3c(Br)cccc32)CC1` [TH5487], for which the “phenotypic rescue (retained structure of organoids)” value with human brain organoids was “phenotypic rescue”. Moreover, the EC50 in the data set on ZIKV [1] (ZIKV NS1 staining, read-out: EC50 [μM] Infected cells) is 2.8 µM; in the data set on ZIKV [1] (end-point dilution assay, read-out: EC50 [μM] Viral titer), 2 µM; in the data set on U87 cells [2] (ZIKV, U87, MOI 10, 48 h, read-out: Viability (nuclei count) EC50), 35.2 µM. In addition, the IC50 in the data set with ZIKV [1] (ZIKV, U87, MOI 10, 48 h, read-out: Antiviral on primary infection IC50) was 2.8 µM; in the data set with ZIKV [1] (ZIKV, U87, MOI 10, 48 h, read-out: Antiviral on titer (µM) IC50), 2 µM; against hOGG1 it was 0.142 µM; with U87 cells [4] (U87, Resazurin, all measured time points (24, 48 or 72 h), read-out: IC50 (toxicity profile, cellular viability)) it was over 50 µM. In addition, the “reduction of ZIKV progeny particles produced by the organoids” value with ZIKV [3] is on record as 60–70%. In addition, the CC50 in the data set on U87 cells [4] (uninfected U87, 24 h) is over 50 µM; with U87 cells [4] (uninfected U87, 48 h) it was over 50 µM; in the data set on U87 cells [4] (uninfected U87, 72 h), over 50 µM.

As for `NC(=O)c1ncn([C@@H]2O[C@H](CO)[C@@H](O)[C@H]2O)n1` [Ribavirin, reference compound], the IC50 with ZIKV [5] (MOI 1, 48 h, read-out: Antiviral on primary infection IC50) was 52.6 µM; in the data set on ZIKV [5] (MOI 1, 48 h, read-out: Antiviral on titer (µM) IC50), 21 µM; in the data set with ZIKV [5] (MOI 10, 48 h, read-out: Antiviral on primary infection IC50), 65.1 µM; with ZIKV [5] (MOI 10, 48 h, read-out: Antiviral on titer (µM) IC50), 41 µM; in the data set with ZIKV [1] (Zika virus, U-87 MG, 48 h, ZIKV, U87, MOI 1, 48 h, read-out: Antiviral on primary infection IC50), 60.7 µM; in the data set on ZIKV [1] (Zika virus, U-87 MG, 48 h, ZIKV, U87, MOI 1, 48 h, read-out: Antiviral on titer (µM) IC50), 52.8 µM. Also, the IC50 came to 59.2 µM with ZIKV [1] (Zika virus, U-87 MG, 48 h, ZIKV, U87, MOI 10, 48 h, read-out: Antiviral on primary infection IC50) and 31.1 µM in the data set with ZIKV [1] (Zika virus, U-87 MG, 48 h, ZIKV, U87, MOI 10, 48 h, read-out: Antiviral on titer (µM) IC50). This molecule also came in with a viability at 48 h, 100 µM in [6] (setting [11]) of 91%. Also, in the data set on ZIKV [7] (setting [12]), the “Inhibition of ZIKV titer (%)” value is 63%. For the same molecule, the “Inhibition of primary ZIKV infection (%)” value with ZIKV [7] (setting [12]) was 60%. Further, in the data set on ZIKV [7] (setting [12]), the “Viral Titer (ZIKV) (%)” value is listed as 37%. Moreover, in the data set with ZIKV [7] (setting [11]), the “Infected Cells (U87, ZIKV) (%)” value was found to be 40%. For the same molecule, the “Infected Cells (U87, ZIKV)” value in the data set on ZIKV [7] was 40%. The “Viral Titer (ZIKV)” value in the data set on ZIKV [7] was found to be 37%. The results for the inhibition at 10 µM in the data set on HAZV (setting [13]) and with HAZV (setting [14]) were 98% and 47%, respectively. Besides, the “Infected Cells (SW13, HAZV)” value in the data set on HAZV came to 53%. Besides, the “Viral Titer (HAZV)” value in the data set on HAZV is reported as 2%. The concentration giving a half-maximal response (EC50) with U87 cells [2] (Homo sapiens, U-87 MG, ZIKV, U87, MOI 10, 48 h, read-out: Viability (nuclei count) EC50) is over 200 µM; in the data set with U87 cells [2] (ZIKV, U87, MOI 1, 48 h, read-out: Viability (nuclei count) EC50), over 200 µM; in the data set with Vero cells (Chlorocebus sabaeus, MOI 10, 48 h), over 200 µM; with Vero cells (MOI 1, 48 h), over 200 µM. The “reduction of ZIKV titers, post-inoculation step” value in the data set on ZIKV [8] (U87, ZIKV MOI 10, 100 μM Ribavirin for 24 h after inoculation) was 80%. Moreover, the “effect on viral titer, later steps (budding)” value in the data set with ZIKV [8] (U87, ZIKV MOI 10, 100 μM Ribavirin from 22 h for 2 h) was “no effect”. Besides, in the data set with ZIKV [8] (U87, ZIKV MOI 10, 100 μM Ribavirin, pre-treatment and during inoculation), the “effect on viral titer, entry steps” value is “no effect”. The “intracellular vRNA levels” value with ZIKV [9] (U87, ZIKV MOI 1, all timepoints (24, 48, 72 h)) is “reduced”. Further, in the data set with ZIKV [9] (setting [15]), the ZIKV titers result is “reduced”. Moreover, in the data set on ZIKV [9] (setting [15]), the “extracellular vRNA” value is recorded as “reduced”. Moreover, in the data set “in vitro”, the viability at 10 µM is 99%. For the same molecule, in the data set “in vitro”, the viability at 24 h, 10 µM is 99%. Further, the CC50 at 24 h in data set [10] (uninfected U87 cells) is over 300 µM. Also, the CC50 at 48 h in [10] (uninfected U87 cells) is over 300 µM. In addition, the CC50 at 72 h in data set [10] (uninfected U87 cells) is over 300 µM.

In [6] (48 h), `O=C(Nc1ccc(I)cc1)N1CCC(n2c(=O)[nH]c3cc(Cl)ccc32)CC1` [TH3289] registered a viability at 48 h, 10 µM of 92%. Further, the viability at 10 µM in [6] was found to be 92%. Further, the “Viral Titer (ZIKV) (%)” value in the data set on ZIKV [7] (setting [16]) was found to be 4%. Besides, in the data set with ZIKV [7] (setting [17]), the “Infected Cells (U87, ZIKV) (%)” value amounted to 59%. For the same molecule, the inhibition at 10 µM was found to be 96% in the data set with ZIKV [7] (setting [18]), 41% in the data set with ZIKV [7] (setting [19]), 95% in the data set on HAZV (setting [13]) and 58% with HAZV (setting [14]). Also, in the data set on ZIKV [7], the “Infected Cells (U87, ZIKV)” value worked out at 59%. Further, the “Viral Titer (ZIKV)” value with ZIKV [7] is reported as 4%. Further, the “Infected Cells (SW13, HAZV)” value in the data set with HAZV amounted to 42%. Besides, the “Viral Titer (HAZV)” value in the data set on HAZV came to 5%. Besides, the IC50 in the data set with ZIKV [1] (setting [20]) worked out at 2.8 µM; in the data set on ZIKV [1] (setting [21]) it was 2.5 µM. Also, the values for the EC50 with ZIKV [1] (setting [22]), in the data set on ZIKV [1] (setting [23]) and in the data set on U87 cells [2] (setting [24]) were 2.8 µM, 2.5 µM and over 50 µM, respectively. This molecule showed a viability at 24 h, 10 µM in “in vitro” of 77%. Also, the CC50 at 24 h in [10] is over 50 µM. Also, the CC50 at 48 h in data set [10] was over 50 µM. The CC50 at 72 h in [10] came out at 34 µM.

In data set [6] (48 h), `O=C(Nc1ccc(I)cc1)N1CCC(n2c(=O)[nH]c3cc(C(F)(F)F)ccc32)CC1` [TH5264, N-(4-iodophenyl)-4-[2-oxo-5-(trifluoromethyl)-2,3-dihydro-1H-1,3-benzodiazol-1-yl]piperidine-1-carboxamide] came in with a viability at 48 h, 10 µM of 86%. In data set [6], the viability at 10 µM worked out at 86%. The “Viral Titer (ZIKV) (%)” value in the data set with ZIKV [7] (setting [16]) was determined as 2%. Further, the “Infected Cells (U87, ZIKV) (%)” value in the data set with ZIKV [7] (setting [17]) is listed as 46%. Besides, the inhibition at 10 µM with ZIKV [7] (setting [18]) was found to be 98%; in the data set with ZIKV [7] (setting [19]) it was 54%. In addition, the “Infected Cells (U87, ZIKV)” value in the data set on ZIKV [7] is 46%. The “Viral Titer (ZIKV)” value with ZIKV [7] is listed as 2%. The IC50 with ZIKV [1] (setting [20]) is 2.7 µM; with ZIKV [1] (setting [21]), 3.2 µM. Further, the EC50 with ZIKV [1] (setting [22]) was 2.7 µM; in the data set with ZIKV [1] (setting [23]) it was 3.2 µM; in the data set on U87 cells [2] (setting [24]) it was 26.7 µM. In “in vitro”, this molecule yielded a viability at 24 h, 10 µM of 94%. In addition, in data set [10], the CC50 at 24 h was over 50 µM. In addition, the CC50 at 48 h in data set [10] was over 50 µM. Moreover, the CC50 at 72 h in [10] turned out to be 31.5 µM.

The values above are taken from paper PMC7823652 (Viruses, 2020).
